Test results as given in PMC13233820, “Recruitment of Mre11 to recombination sites during meiosis” (Nature Communications, 2026).

Legend:
[1] = tested on: supercoiled pUC19 plasmid DNA; experiment: In vitro condensation assay of Mre11 (fluorescence microscopy); type: biochemical
Experimental: Fig. 1 Mre11 and the MRX complex assemble DNA-dependent condensates in vitro. a, c Effect of the presence of plasmid DNA on condensation of (a) Alexa488-labeled Mre11 (n = 11 and 9 fields of view for reactions without and with DNA, respectively) and (c) eGFP-tagged MRX (n = 11 (- DNA) and 9 ( + DNA)). Experiments were performed without PEG. b, d Effect of DNase I, in the absence of PEG, on (b) Mre11 (n = 9 (no treatment) and 11 (DNase I)) and (d) MRX (n = 9 (no treatment) and 11 (DNase I)) condensates. Condensates were pre-assembled for 20 min with 5.7 nM pUC19 prior to challenge. Quantification represents total foci intensity (green) in a field of view and total number of foci per 1000 µm^2 (magenta). Foci intensity is normalized to the mean intensity of samples with DNA for (a, c) and untreated samples for (b, d). […] Quantification represents total foci intensity (green) in a field of view (normalized to the mean of + PEG images) and total number of foci per 1000 µm^2 (magenta). […]
Fig. 2 The C-terminal IDR of Mre11 is required for condensation. a AlphaFold2 predicted model of Mre11 (AF-P32829-F1-v4). […] Quantification represents total fluorescence intensity (green) in a field of view and total number of foci per 1000 µm^2 (magenta). […]

pUC19 plasmid substrate = experiment: Gel shift assay, plasmid DNA binding; conditions: 1 nM pUC19; reduced-mobility complexes (supershift) at higher concentration
Experimental: Proteins were diluted to their appropriate working concentrations in their respective storage buffers. […] Reactions were assembled at 30 °C for 30 mins and resolved in a 1% agarose (SeaKem LE Agarose, Lonza) at 60 V for 120 mins at 4 °C. Gels were stained with SYBR Gold Nucleic Acid Gel Stain (S11497, Invitrogen) for 40 mins and visualized with Amersham Typhoon biomolecular imager (Cytiva).

Mer2 condensates = experiment: Colocalization of fluorescently-labeled Mer2 and Mre11 condensates; type: binding, Saccharomyces cerevisiae; conditions: condensates assembled separately on DNA then incubated together
Experimental: Fig. 4 Mer2 recruits Mre11 during meiosis. a Effect of 1,6-hexanediol treatment on meiotic Mre11^myc foci visualized by immunofluorescence analysis of yeast nuclear spreads 4 hours after transfer to SPM. […] At least 22 tetrads were dissected for each strain (n ≥ 88 spores). e Quantification of sub-population of cells showing discrete Mre11 foci and aggregated Mre11 foci in indicated strains. Images used for analysis were from the same experiments in (b) and (d). f Colocalization of fluorescently-labeled Mer2 with wild-type or truncated Mre11. […] The number of images analyzed for each sample were WT (n = 11), Mre11^Δ10-270 (n = 13), Mre11^Δ290-472 (n = 15), Mre11^ΔIDR (n = 10), Mre11^ΔC49 (n = 13). Error bars represent mean ± SD from the indicated (n) fields of view. p-values compared to Mre11-WT are: Mre11^Δ10-270 (0.006), Mre11^Δ290-472 (0.0003), Mre11^ΔIDR (<0.0001), Mre11^ΔC49 (<0.0001). g Colocalization of fluorescently-labeled Mre11-C49 and Mer2. Condensates were assembled by mixing 800 nM of ^mScarletMre11-C49 and 200 nM of ^eGFPMer2 for 30 min prior to imaging. […]
Proteins were diluted to a 10 × stock of their appropriate working concentrations in their respective storage buffers. […] Images were analyzed with ImageJ using a custom-made script. […] Masked foci were counted, and the intensity inside the focus mask was integrated. […] Data were analyzed using Graphpad Prism 10.4.0.

## Mre11: full-length yeast Mre11 nuclease, recombinant from Sf9 cells
[1]; in the presence of plasmid DNA
  Condensate formation (in words): form large clusters visible by fluorescence microscopy
[1]; protein titration, plasmid DNA, 5% PEG
  Protein concentration above which foci intensity steeply increases: above 200 nM
pUC19 plasmid substrate
  Protein concentration up to which fast-migrating complexes form: ~25 nM
Mer2 condensates
  Colocalization with Mer2 condensates (in words): nearly absolute colocalization
